Measured values taken from ChEMBL document CHEMBL5653631, “A Potent and Selective ULK1 Inhibitor Suppresses Autophagy and Sensitizes Cancer Cells to Nutrient Stress” (iScience, 2018).

Tests used:
[1] = biological target: T1, Inhibitor of nuclear factor kappa-B kinase subunit beta (Homo sapiens) (UniProt O14920); experiment: Inhibition of human recombinant IKKb at 500 nM in presence of ATP by radiometric assay relative to control
T1 sequence (whole entry): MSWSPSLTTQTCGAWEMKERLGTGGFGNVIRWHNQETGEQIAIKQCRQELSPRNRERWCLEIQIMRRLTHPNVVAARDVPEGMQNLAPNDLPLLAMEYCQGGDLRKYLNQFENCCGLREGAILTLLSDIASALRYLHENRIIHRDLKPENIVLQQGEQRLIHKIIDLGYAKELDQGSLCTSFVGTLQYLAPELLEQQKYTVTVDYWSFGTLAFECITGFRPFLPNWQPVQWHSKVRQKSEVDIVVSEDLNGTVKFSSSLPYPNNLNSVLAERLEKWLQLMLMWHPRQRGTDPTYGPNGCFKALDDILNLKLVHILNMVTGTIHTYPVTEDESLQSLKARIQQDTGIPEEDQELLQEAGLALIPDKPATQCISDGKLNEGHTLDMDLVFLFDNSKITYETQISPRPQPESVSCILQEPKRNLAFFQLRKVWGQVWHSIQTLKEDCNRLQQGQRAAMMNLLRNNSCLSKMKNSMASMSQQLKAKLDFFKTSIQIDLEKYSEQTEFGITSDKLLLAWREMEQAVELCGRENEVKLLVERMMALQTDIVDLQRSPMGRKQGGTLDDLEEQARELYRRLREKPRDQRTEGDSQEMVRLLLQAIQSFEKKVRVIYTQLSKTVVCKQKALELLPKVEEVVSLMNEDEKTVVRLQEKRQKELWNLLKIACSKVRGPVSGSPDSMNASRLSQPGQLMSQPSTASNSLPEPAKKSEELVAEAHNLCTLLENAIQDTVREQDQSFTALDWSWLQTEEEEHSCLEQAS

[2] = biological target: Serine/threonine-protein kinase PAK 2 (Homo sapiens) (UniProt Q13177); experiment: Inhibition of human recombinant PAK2 at 500 nM in presence of ATP by radiometric assay relative to control
[3] = biological target: Serine/threonine-protein kinase pim-3 (Homo sapiens) (UniProt Q86V86); experiment: Inhibition of human recombinant PIM3 at 500 nM in presence of ATP by radiometric assay relative to control
[4] = biological target: T2, Serine/threonine-protein kinase Sgk2 (Homo sapiens) (UniProt Q9HBY8); experiment: Inhibition of human recombinant SGK2 at 500 nM related to control ULK1
T2 sequence (whole entry): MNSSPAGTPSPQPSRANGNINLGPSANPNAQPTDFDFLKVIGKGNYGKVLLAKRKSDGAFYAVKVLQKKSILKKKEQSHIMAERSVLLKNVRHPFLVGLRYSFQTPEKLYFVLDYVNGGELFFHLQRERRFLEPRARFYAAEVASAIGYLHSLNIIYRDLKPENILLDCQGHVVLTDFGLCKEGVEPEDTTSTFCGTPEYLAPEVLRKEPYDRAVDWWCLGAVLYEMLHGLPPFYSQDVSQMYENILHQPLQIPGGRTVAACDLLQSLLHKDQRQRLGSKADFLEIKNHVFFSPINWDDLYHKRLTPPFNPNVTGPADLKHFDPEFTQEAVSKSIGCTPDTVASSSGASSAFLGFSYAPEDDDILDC

[5] = biological target: Interleukin-1 receptor-associated kinase 1 (Homo sapiens) (UniProt P51617); experiment: Inhibition of human recombinant IRAK1 at 15 nM in presence of ATP by radiometric assay relative to control
[6] = biological target: Macrophage colony-stimulating factor 1 receptor (Homo sapiens) (UniProt P07333); experiment: Inhibition of human recombinant FMS at 15 nM related to control ULK1
[7] = biological target: T3, Inhibitor of nuclear factor kappa-B kinase subunit epsilon (Homo sapiens) (UniProt Q14164); experiment: Inhibition of human recombinant IKKe at 15 nM related to control ULK1
T3 sequence (whole entry): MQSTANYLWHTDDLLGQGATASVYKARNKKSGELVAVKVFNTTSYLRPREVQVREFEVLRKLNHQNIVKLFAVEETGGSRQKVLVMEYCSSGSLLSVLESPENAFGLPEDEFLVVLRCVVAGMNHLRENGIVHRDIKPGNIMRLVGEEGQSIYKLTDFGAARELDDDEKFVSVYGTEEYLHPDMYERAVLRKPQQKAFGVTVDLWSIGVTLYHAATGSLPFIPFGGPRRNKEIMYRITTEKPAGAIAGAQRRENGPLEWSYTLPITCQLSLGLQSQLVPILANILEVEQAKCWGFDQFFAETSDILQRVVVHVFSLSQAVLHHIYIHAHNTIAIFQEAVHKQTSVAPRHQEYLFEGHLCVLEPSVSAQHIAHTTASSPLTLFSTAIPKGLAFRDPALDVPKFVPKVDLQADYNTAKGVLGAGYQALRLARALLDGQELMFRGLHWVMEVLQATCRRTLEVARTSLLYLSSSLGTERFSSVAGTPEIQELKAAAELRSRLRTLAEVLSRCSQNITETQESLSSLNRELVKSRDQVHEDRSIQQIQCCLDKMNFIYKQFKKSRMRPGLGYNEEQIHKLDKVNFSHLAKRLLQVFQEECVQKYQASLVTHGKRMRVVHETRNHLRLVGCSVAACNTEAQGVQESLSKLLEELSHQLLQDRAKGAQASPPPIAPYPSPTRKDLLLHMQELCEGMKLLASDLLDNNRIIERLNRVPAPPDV

[8] = biological target: T4, Serine/threonine-protein kinase TBK1 (Homo sapiens) (UniProt Q9UHD2); experiment: Inhibition of human recombinant TBK1 at 40 nM related to control ULK1
T4 sequence (whole entry): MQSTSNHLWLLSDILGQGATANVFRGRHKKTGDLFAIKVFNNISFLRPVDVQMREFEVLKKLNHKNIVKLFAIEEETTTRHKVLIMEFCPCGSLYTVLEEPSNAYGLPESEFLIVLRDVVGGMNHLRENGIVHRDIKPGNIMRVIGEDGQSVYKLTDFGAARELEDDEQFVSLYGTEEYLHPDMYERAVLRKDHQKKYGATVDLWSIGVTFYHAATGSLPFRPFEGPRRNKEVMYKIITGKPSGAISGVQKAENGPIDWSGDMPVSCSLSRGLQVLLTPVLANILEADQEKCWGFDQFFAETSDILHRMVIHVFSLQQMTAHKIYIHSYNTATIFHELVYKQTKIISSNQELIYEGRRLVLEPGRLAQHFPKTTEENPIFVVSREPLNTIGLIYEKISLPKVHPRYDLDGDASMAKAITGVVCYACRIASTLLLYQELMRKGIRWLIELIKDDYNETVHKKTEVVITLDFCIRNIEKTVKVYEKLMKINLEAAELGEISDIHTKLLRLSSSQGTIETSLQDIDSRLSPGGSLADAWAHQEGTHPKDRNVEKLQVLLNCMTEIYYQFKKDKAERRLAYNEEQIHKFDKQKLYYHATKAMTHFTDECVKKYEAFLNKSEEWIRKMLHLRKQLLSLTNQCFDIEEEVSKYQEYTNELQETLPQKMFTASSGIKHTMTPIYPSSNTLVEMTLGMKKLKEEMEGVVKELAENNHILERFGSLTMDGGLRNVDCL

Macrophage colony-stimulating factor 1 receptor (Homo sapiens), sequence (P07333 whole entry): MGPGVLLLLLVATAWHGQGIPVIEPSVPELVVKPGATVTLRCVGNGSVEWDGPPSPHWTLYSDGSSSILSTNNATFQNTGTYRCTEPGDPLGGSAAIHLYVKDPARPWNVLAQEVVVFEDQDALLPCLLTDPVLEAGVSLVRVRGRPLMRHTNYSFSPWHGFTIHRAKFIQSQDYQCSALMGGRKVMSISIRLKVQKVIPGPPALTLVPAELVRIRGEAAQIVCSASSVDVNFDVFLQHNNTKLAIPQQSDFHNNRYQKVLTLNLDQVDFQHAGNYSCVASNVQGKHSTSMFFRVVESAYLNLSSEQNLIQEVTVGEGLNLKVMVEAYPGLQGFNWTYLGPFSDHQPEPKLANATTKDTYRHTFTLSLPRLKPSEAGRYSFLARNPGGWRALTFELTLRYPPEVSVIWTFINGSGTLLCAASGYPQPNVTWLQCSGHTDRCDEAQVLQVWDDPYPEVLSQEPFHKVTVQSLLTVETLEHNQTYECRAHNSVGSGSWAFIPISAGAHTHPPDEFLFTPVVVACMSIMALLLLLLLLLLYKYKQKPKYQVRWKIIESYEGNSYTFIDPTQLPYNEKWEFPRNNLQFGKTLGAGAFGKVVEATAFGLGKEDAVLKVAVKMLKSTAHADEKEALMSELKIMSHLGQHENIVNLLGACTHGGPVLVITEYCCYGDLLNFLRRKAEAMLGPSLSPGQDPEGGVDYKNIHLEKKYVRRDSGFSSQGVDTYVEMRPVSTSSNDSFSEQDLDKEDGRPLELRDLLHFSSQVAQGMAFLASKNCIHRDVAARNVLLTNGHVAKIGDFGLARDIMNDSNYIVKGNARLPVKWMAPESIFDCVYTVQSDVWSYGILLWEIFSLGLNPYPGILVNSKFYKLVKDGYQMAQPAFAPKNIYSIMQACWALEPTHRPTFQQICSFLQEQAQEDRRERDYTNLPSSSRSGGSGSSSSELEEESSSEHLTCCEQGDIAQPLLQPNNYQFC
Interleukin-1 receptor-associated kinase 1 (Homo sapiens), sequence (P51617 whole entry, looked up): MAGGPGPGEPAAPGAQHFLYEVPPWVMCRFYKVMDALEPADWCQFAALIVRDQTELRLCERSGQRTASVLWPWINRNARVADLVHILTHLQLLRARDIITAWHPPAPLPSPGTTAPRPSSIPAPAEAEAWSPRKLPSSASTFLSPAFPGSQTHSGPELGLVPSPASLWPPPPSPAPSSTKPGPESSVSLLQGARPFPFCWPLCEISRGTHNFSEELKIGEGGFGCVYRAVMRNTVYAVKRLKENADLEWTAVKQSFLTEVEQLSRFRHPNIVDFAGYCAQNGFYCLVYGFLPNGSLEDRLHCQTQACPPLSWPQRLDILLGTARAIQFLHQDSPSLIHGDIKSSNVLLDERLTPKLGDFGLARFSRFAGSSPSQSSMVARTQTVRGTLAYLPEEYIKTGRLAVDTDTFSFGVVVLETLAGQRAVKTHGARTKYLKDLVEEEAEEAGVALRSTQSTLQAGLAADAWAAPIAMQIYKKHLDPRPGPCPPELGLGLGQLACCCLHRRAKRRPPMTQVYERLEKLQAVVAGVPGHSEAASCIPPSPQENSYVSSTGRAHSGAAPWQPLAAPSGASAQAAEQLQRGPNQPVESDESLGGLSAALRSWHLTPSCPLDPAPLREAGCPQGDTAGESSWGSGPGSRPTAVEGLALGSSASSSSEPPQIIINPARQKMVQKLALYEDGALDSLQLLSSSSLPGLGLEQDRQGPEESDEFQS
Serine/threonine-protein kinase PAK 2 (Homo sapiens), sequence (Q13177 whole entry): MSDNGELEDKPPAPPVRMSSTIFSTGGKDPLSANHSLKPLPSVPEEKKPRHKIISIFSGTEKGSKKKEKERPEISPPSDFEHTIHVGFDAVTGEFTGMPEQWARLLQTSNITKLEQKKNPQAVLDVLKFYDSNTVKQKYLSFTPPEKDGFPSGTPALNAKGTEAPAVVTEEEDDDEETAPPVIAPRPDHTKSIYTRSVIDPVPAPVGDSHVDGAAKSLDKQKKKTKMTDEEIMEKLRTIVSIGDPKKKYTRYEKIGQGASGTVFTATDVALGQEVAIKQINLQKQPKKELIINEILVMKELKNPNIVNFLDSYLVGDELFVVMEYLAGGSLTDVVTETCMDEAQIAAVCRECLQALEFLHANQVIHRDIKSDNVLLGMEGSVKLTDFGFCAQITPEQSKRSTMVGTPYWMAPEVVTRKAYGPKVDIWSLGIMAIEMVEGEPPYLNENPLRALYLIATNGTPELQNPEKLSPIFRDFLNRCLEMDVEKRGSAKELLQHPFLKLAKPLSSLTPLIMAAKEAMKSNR

Compound: CNC(=O)c1ccccc1Oc1nc(Nc2cc(OC)c(OC)c(OC)c2)ncc1Br
- inhibition [1]: 2%
- inhibition [2]: 14%
- inhibition [3]: 0%
- fold change (FC) [4]: 0.23

Compound: CC(C)[C@H](NC(=O)c1cc(-c2cnn3cc(-c4ccc(OCCN5CCCCC5)cc4)cnc23)cs1)C(F)(F)F
- inhibition [5]: 36%
- fold change (FC) [6]: 0.19
- fold change (FC) [7]: 0.85

Compound: O=C(N[C@@H](C1CC1)C(F)(F)F)c1cc(-c2cnn3cc(-c4ccc(F)cc4)cnc23)cs1
- fold change (FC) [8]: 0.36
